Experimental data published in the NIST ThermoML archive (doi:10.1016/j.jct.2010.07.002).

Assay: xn = mol fraction of the nth substance listed
Conditions: 101.3 kPa, Liquid, Vibrating tube method

C[N+](=O)[O-] [nitromethane] + O
mass density [kg/m3]
Conditions | 278.15 K | 288.15 K | 298.15 K | 308.15 K | 318.15 K
x2 = 0.001777 | 1158.13 | 1144.64 | 1131.07 | 1117.42 | 1103.68
x2 = 0.002859 | 1158.06 | 1144.56 | 1130.99 | 1117.35 | 1103.61
x2 = 0.004913 | 1157.94 | 1144.44 | 1130.87 | 1117.22 | 1103.48
x2 = 0.00632 | 1157.85 | 1144.35 | 1130.78 | 1117.13 | 1103.39
x2 = 0.008036 | 1157.74 | 1144.24 | 1130.67 | 1117.02 | 1103.29
x2 = 0.009712 | 1157.64 | 1144.14 | 1130.57 | 1116.92 | 1103.18
x2 = 0.01188 | 1157.5 | 1144 | 1130.43 | 1116.79 | 1103.06
x2 = 0.01446 | 1157.34 | 1143.85 | 1130.28 | 1116.63 | 1102.9
x2 = 0.01696 | 1157.19 | 1143.7 | 1130.13 | 1116.49 | 1102.75
x2 = 0.02033 | 1156.99 | 1143.5 | 1129.93 | 1116.29 | 1102.56
x2 = 0.02492 | 1156.72 | 1143.23 | 1129.66 | 1116.02 | 1102.3
x2 = 0.02911 | 1156.49 | 1143 | 1129.43 | 1115.79 | 1102.07
